Test results taken from patent US20250255857A1, “METHODS OF TREATING ANDROGEN RECEPTOR-INDEPENDENT PROSTATE CANCER” (FOGHORN THERAPEUTICS INC., priority 2022, published 2025).

What was measured:
[1] = test system: VCAP human prostate cancer tumor cells; assay: VCaP CRPC CDX model in castrated mice (Example 6), tumor growth inhibition and tolerability; format: in vivo
Method: Procedure: The experimental details of the studies, including tumor model, mouse strain, cell number implanted, vehicle used, days of treatment, treatment details, and average tumor size at start of dosing are outlined in Table 7. All study mice were obtained and the studies were conducted at Pharmaron. Each mouse was inoculated subcutaneously on the right flank with the single cell suspension of VCAP human prostate cancer tumor cells (1×10^7) in 0.1 mL with Matrigel (1:1) in DMEM medium with 10% FBS for tumor development. The mice were castrated by removing the testes via a scrotal approach when the tumor volume reached 270 mm^3. After castration, the tumor volume decreased. Treatment started when the mean tumor volume grew back 265 mm^3. Based on tumor volume, mice were randomly assigned to respective groups using a computer-generated randomization procedure and treated according to the study design in Table 8.

[2] = test system: LNCaP prostate xenograft tumors; assay: LNCaP prostate xenograft tumor model, tumor growth inhibition; format: in vivo, mice
Method: (§1) Procedure: The experimental details of the studies, including tumor model, mouse strain, cell number implanted, vehicle used, days of treatment, treatment details, and average tumor size at start of dosing are outlined in Table 1. All study mice were purchased from Beijing Anikeeper Biotech and Matrigel was utilized as a basement membrane for all xenograft models. All xenografts were engrafted subcutaneously in the right flank region. The vehicles and Compound 1 (3 mg/kg) were administered twice weekly (BIW) intraperitoneally and enzalutamide (30 mg/kg) was administered orally once daily (QD), when applicable. Tumor volumes and body weights were measured over the course of study, and doses were adjusted by body weight to achieve the proper dose in terms of mg/kg.

[3] = test system: NCI-H660 prostate xenograft tumors; assay: NCI-H660 prostate xenograft tumor model, tumor growth inhibition; format: in vivo, mice; conditions: NCI-H660 CDX model
Method: as §1

[4] = VCAP CRPC model, castrated mice, Compound 1 at 10 mg/kg IP BIW, 25 days
[5] = VCAP CRPC model, castrated mice, Compound 1 at 10 mg/kg IP BIW, 25 days, Day 57

COc1cc(-c2cn(C)c(=O)c3cnc(N4CCC4)cc23)cc(OC)c1CN1CCC(CN2CCC3(CC2)CN(c2ccc4c(c2)C(=O)N(C2CCC(=O)NC2=O)C4)C3)CC1 (stereo not shown) [Compound 1, 3-(6-(7-((1-(4-(6-(azetidin-1-yl)-2-methyl-1-oxo-1,2-dihydro-2,7-naphthyridin-4-yl)-2,6-dimethoxybenzyl)piperidin-4-yl)methyl)-2,7-diazaspiro[3.5]nonan-2-yl)-1-oxoisoindolin-2-yl) piperidine-2,6-dione]
animals found dead at the late stage of the treatment period ([1]; Compound 1 10 mg/kg, enzalutamide 30 mg/kg, deaths suspected due to castration surgery): One
Tumor Growth % on Day 57 [1, 4]: 267 ± 20%
Tumor Size on Day 57 [1, 4]: 697 ± 44 mm3
T/C [1, 5]: 86.2%
TGI [1, 5]: 13.8%
TGI ([1]; VCaP CRPC model, castrated mice, Compound 1 10 mg/kg, enzalutamide 30 mg/kg, day 57 after tumor inoculation): 13.8%
TGI with Compound 1 3 mg/kg ([2]; LNCaP CDX model, AR+, 3 mg/kg BIW IP): 6.0%
tumor growth inhibition (TGI), in words ([2]; LNCaP xenograft, Compound 1 3 mg/kg BIW IP, enzalutamide 30 mg/kg QD oral): did not result in tumor growth inhibition
TGI with Compound 1 3 mg/kg ([3]; AR−, 3 mg/kg BIW IP): 56.9%
TGI ([3]; Compound 1 3 mg/kg BIW IP): 56.9%
